This experiment concerns RSV Long strain. The experiment in a line: Viral cytopathic effect (CPE) assay, anti-RSV activity. The format is cell-based, Respiratory Syncytial Virus. As to conditions: human respiratory syncytial virus, 144 h, RSV Long strain (ATCC); cell viability after 6 days, Cell Counting kit-8. The essentials:
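EC50 was derived from CCK-8 viability at 450/630 nm measured 6 days post-infection. Infection used enough RSV Long strain for approximately 80–90% cytopathic effect, in the presence of half-log serially diluted compound. Cells were plated the day before at 6×10^3 per well in DMEM/10% FBS.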

For the molecule `Cc1ccc2nc(N3CCS(=O)(=O)c4ccccc4C3)cc(NC3CCNCC3)c2c1` [Example 3-39, 2-(1,1-Dioxido-2,3-dihydro-1,4-benzothiazepin-4(5H)-yl)-6-methyl-N-(piperidin-4-yl)quinolin-4-amine], the concentration giving a half-maximal response (EC50) came to 0.03 µM.

`Cc1ccc2nc(N3CCCc4ccc(F)cc4C3)cc(NCCN)c2c1` [Example 118-4, N-[2-(8-Fluoro-1,3,4,5-tetrahydro-2H-2-benzazepin-2-yl)-6-methylquinolin-4-yl]ethane-1,2-diamine] came in with an EC50 of 0.104 µM.

`Clc1ccc2nc(N3CCCc4ccccc4C3)ccc2c1` [Example 130-1, 2-(6-Chloroquinolin-2-yl)-2,3,4,5-tetrahydro-1H-2-benzazepine] yielded a concentration giving a half-maximal response (EC50) of 6.84 µM.

As to `CCN(CCNc1cc(N2CCS(=O)(=O)c3ccccc3C2)nc2ccc(C)cc12)C1COC1` [Example 44-2, N′-[2-(1,1-Dioxido-2,3-dihydro-1,4-benzothiazepin-4(5H)-yl)-6-methylquinolin-4-yl]-N-ethyl-N-(oxetan-3-yl)ethane-1,2-diamine], the concentration for a half-maximal effect (EC50) turned out to be 1.55 µM.

Molecule `Cc1ccc2nc(N3CCC(F)(F)c4ccccc4C3)nc(NCC(F)(F)CN)c2c1` [Example 117, N-[2-(5,5-Difluoro-1,3,4,5-tetrahydro-2H-2-benzazepin-2-yl)-6-methylquinazolin-4-yl]-2,2-difluoropropane-1,3-diamine] showed an EC50 of 5.97 µM.

Take `Cc1ccc2nc(N3CC[S+]([O-])c4ccccc4C3)nc(N3C[C@@H](N)[C@H](F)C3)c2c1` (relative stereo) [Example 62-7, trans-4-Fluoro-1-[6-methyl-2-(1-oxido-2,3-dihydro-1,4-benzothiazepin-4(5H)-yl)quinazolin-4-yl]pyrrolidin-3-amine]: a half-maximal effect (EC50) was put at 0.186 µM.

Take `Cc1ccc2nc(N3CCS(=O)(=O)c4ccccc4C3)cc(NCC3(N)CCCCC3)c2c1` [Example 2-11, N-[(1-Aminocyclohexyl)methyl]-2-(1,1-dioxido-2,3-dihydro-1,4-benzothiazepin-4(5H)-yl)-6-methylquinolin-4-amine]: the EC50 came out at 0.008 µM.

Molecule `CCc1ccc2nc(N3CCS(=O)(=O)c4ccccc4C3)cc(NCCN)c2c1` [Example 9-10, N-[2-(1,1-Dioxido-2,3-dihydro-1,4-benzothiazepin-4(5H)-yl)-6-ethylquinolin-4-yl]ethane-1,2-diamine] registered a 50% effective concentration (EC50) of 0.037 µM.

The molecule `NCCNc1cc(N2CC[S+]([O-])c3ccccc3C2)nc2ccc(Cl)cc12` (stereo not drawn) [Example 18-7, N-[6-Chloro-2-(1-oxido-2,3-dihydro-1,4-benzothiazepin-4(5H)-yl)quinolin-4-yl]ethane-1,2-diamine] gave a concentration giving a half-maximal response (EC50) of 0.023 µM.

Turning to `C=Cc1ccc2nc(N3CCS(=O)(=O)c4ccccc4C3)cc(NCCCN)c2c1` [Example 53, N-[2-(1,1-Dioxido-2,3-dihydro-1,4-benzothiazepin-4(5 H)-yl)-6-ethenylquinolin-4-yl]propane-1,3-diamine], the half-maximal effective concentration (EC50) turned out to be 0.094 µM.

The molecule `Cc1ccc2nc(N3CC[S+]([O-])c4ccccc4C3)cc(NCC3(CN)COC3)c2c1` (stereo not drawn) [Example 18-8, N-{[3-(Aminomethyl)oxetan-3-yl]methyl}-6-methyl-2-(1-oxido-2,3-dihydro-1,4-benzothiazepin-4(5H)-yl)quinolin-4-amine] gave an EC50 of 0.0007 µM.

The molecule `COc1ccc2nc(N3CCS(=O)(=O)c4ccccc4C3)cc(NCCCN)c2c1` [Example 17-4, N-[2-(1,1-Dioxido-2,3-dihydro-1,4-benzothiazepin-4(5H)-yl)-6-methoxyquinolin-4-yl]propane-1,3-diamine] registered an EC50 of 0.071 µM.

The molecule `Cc1ccc2c(c1)S(=O)(=O)CCN(c1cc(NCC3(N)COC3)c3ccccc3n1)C2` [Example 2-4, N-[(3-Aminooxetan-3-yl)methyl]-2-(8-methyl-1,1-dioxido-2,3-dihydro-1,4-benzothiazepin-4(5H)-yl)-quinolin-4-amine] yielded a 50% effective concentration (EC50) of 0.081 µM.

Molecule `Cc1ccc2nc(N3CCS(=O)(=O)c4ccccc4C3)cc(NCCN)c2c1` [Example 9-16, N-[2-(1,1-Dioxido-2,3-dihydro-1,4-benzothiazepin-4(5H)-yl)-6-methylquinolin-4-yl]ethane-1,2-diamine] registered a concentration giving a half-maximal response (EC50) of 0.005 µM.

`Cc1ccc2nc(N3CCS(=O)(=O)c4ccccc4C3)cc(NCC(F)(F)CN)c2c1` [Example 3-19, N-[2-(1,1-Dioxido-2,3-dihydro-1,4-benzothiazepin-4(5H)-yl)-6-methylquinolin-4-yl]-2,2-difluoropropane-1,3-diamine] registered an EC50 of 0.009 µM.

For the molecule `Cc1ccc2nc(N3CCS(=O)(=O)c4ccccc4C3)cc(NCC3(N)COC3)c2c1` [Example 2-2, N-[(3-Aminooxetan-3-yl)methyl]-2-(1,1-dioxido-2,3-dihydro-1,4-benzothiazepin-4(5H)-yl)-6-methylquinolin-4-amine], a half-maximal response (EC50) required 0.002 µM.

For the molecule `Cc1ccc2nc(N3CCS(=O)(=O)c4ccccc4C3)cc(NC[C@H](N)CO)c2c1` [Example 37-1, (2S)-2-Amino-3-{[2-(1,1-dioxido-2,3-dihydro-1,4-benzothiazepin-4(5H)-yl)-6-methylquinolin-4-yl]amino}propan-1-ol], the half-maximal effective concentration (EC50) was found to be 0.005 µM.

For the molecule `Cc1ccc2nc(N3CCS(=O)(=O)c4ccccc4C3)nc(N)c2c1` [Example 59, 2-(1,1-Dioxido-2,3-dihydro-1,4-benzothiazepin-4(5H)-yl)-6-methylquinazolin-4-amine], the midpoint of the response, the EC50, lay at 0.746 µM.

The molecule `Cc1ccc2c(NCCCN)cc(N3CCS(=O)(=O)c4ccccc4C3)nc2c1` [Example 17-7, N-[2-(1,1-Dioxido-2,3-dihydro-1,4-benzothiazepin-4(5H)-yl)-7-methylquinolin-4-yl]propane-1,3-diamine] yielded an EC50 of 0.642 µM.

Turning to `CSc1ccc2nc(N3CCS(=O)(=O)c4ccccc4C3)cc(NCCCN)c2c1` [Example 9-33, N-[2-(1,1-Dioxido-2,3-dihydro-1,4-benzothiazepin-4(5H)-yl)-6-(methylsulfanyl)quinolin-4-yl]propane-1,3-diamine], the concentration for a half-maximal effect (EC50) was found to be 0.057 µM.

As for `Cc1ccc2nc(N3CCC(F)(F)c4ccccc4C3)nc(NCC3(CN)CSC3)c2c1` [Example 114-2, N-{[3-(Aminomethyl)thietan-3-yl]methyl}-2-(5,5-difluoro-1,3,4,5-tetrahydro-2H-2-benzazepin-2-yl)-6-methylquinazolin-4-amine], a half-maximal effect (EC50) was put at 0.975 µM.

The molecule `Cc1ccc2nc(N3CCS(=O)(=O)c4ccccc4C3)cc(NC(=O)C3CCN3)c2c1` (stereo not drawn) [Example 49, N-[2-(1,1-Dioxido-2,3-dihydro-1,4-benzothiazepin-4(5H)-yl)-6-methylquinolin-4-yl]azetidine-2-carboxamide] registered an EC50 of 0.721 µM.

`Cc1ccc2nc(N3CCC(F)(F)c4ccccc4C3)cc(NCCCO)c2c1` [Example 110-6, 3-{[2-(5,5-Difluoro-1,3,4,5-tetrahydro-2H-2-benzazepin-2-yl)-6-methylquinolin-4-yl]amino}propan-1-ol]: a half-maximal effect (EC50) was put at 4.28 µM.

In turn, `Cc1ccc2nc(N3CC(=O)Nc4ccccc4C3)cc(NCCN)c2c1` [Example 133-1, 4-{4-[(2-Aminoethyl)amino]-6-methylquinolin-2-yl}-1,3,4,5-tetrahydro-2H-1,4-benzodiazepin-2-one] gave a concentration for a half-maximal effect (EC50) of 0.31 µM.

On to `NCCCNc1cc(N2CCS(=O)(=O)c3ccccc3C2)nc2ccc(C(N)=O)cc12` [Example 81, 4-[(3-Aminopropyl)amino]-2-(1,1-dioxido-2,3-dihydro-1,4-benzothiazepin-4(5H)-yl)quinoline-6-carboxamide], for which the concentration for a half-maximal effect (EC50) turned out to be 0.353 µM.

`Cc1ccc2nc(N3CC[S+]([O-])c4ccccc4C3)cc(NCCN)c2c1` (stereo not drawn) [Example 18-10, N-[6-Methyl-2-(1-oxido-2,3-dihydro-1,4-benzothiazepin-4(5H)-yl)quinolin-4-yl]ethane-1,2-diamine] returned a 50% effective concentration (EC50) of 0.011 µM.

Molecule `CCNC1(CNc2cc(N3CCS(=O)(=O)c4ccccc4C3)nc3ccc(C)cc23)COC1` [Example 43, 2-(1,1-Dioxido-2,3-dihydro-1,4-benzothiazepin-4(5H)-yl)-N-{[3-(ethylamino)oxetan-3-yl]methyl}-6-methylquinolin-4-amine] had an EC50 of 0.017 µM.

Turning to `Cc1ccc2nc(N3CCS(=O)(=O)c4ccccc4C3)cc(N[C@H]3CNC[C@H]3O)c2c1` (relative stereo) [Example 28-4, cis-4-{[2-(1,1-Dioxido-2,3-dihydro-1,4-benzothiazepin-4(5H)-yl)-6-methylquinolin-4-yl]amino}pyrrolidin-3-ol], the 50% effective concentration (EC50) came to 0.001 µM.

The molecule `NCC(=O)Nc1cc(N2CCCc3ccccc3C2)nc2ccccc12` [Example 127, N-[2-(1,3,4,5-Tetrahydro-2H-2-benzazepin-2-yl)quinolin-4-yl]glycinamide] yielded an EC50 of 6.25 µM.

As to `Cc1cc2c(NCC3(N)COC3)cc(N3CCS(=O)(=O)c4ccccc4C3)nc2cc1F` [Example 3-24, N-[(3-Aminooxetan-3-yl)methyl]-2-(1,1-dioxido-2,3-dihydro-1,4-benzothiazepin-4(5H)-yl)-7-fluoro-6-methylquinolin-4-amine], the EC50 is 0.021 µM.

With `Cc1ccc2nc(N3CCS(=O)(=O)c4ccccc4C3)cc(NCCCNC3COC3)c2c1` [Example 45-1, N-[2-(1,1-Dioxido-2,3-dihydro-1,4-benzothiazepin-4(5H)-yl)-6-methylquinolin-4-yl]-N′-(oxetan-3-yl)propane-1,3-diamine], a half-maximal effect (EC50) was put at 0.021 µM.

`Cc1ccc2nc(N3CCS(=O)(=O)c4cc(F)ccc4C3)cc(NCC3(CN)COC3)c2c1` [Example 3-1, N-{[3-(Aminomethyl)oxetan-3-yl]methyl}-2-(8-fluoro-1,1-dioxido-2,3-dihydro-1,4-benzothiazepin-4(5H)-yl)-6-methylquinolin-4-amine] registered an EC50 of 0.006 µM.

As for `Cc1ccc2nc(N3CCS(=O)(=O)c4ccccc4C3)cc(NCCCCCCCCCO)c2c1` [Example 12-6, 9-{[2-(1,1-Dioxido-2,3-dihydro-1,4-benzothiazepin-4(5H)-yl)-6-methylquinolin-4-yl]amino}nonan-1-ol], the EC50 amounted to 9.21 µM.

(Values after patent US8871756B2 (Hoffmann-La Roche Inc., priority 2011, dated 2014).)
